Reference: EPA's ToxValDB 9.5 (doi:10.2903/j.efsa.2014.3817)

Columns and labels:
Colinus virginianus = conditions: reproduction developmental
Folsomia candida = conditions: chronic/long-term
Anas platyrhynchos = conditions: acute; oral; unspecified; mortality
Canidae = conditions: chronic; duration: 1 years; oral; Dog Other; clinical chemistry
Oncorhynchus mykiss = conditions: chronic/long-term; duration: 90 days; other
Oryctolagus sp. = conditions: reproduction developmental; histopathology: nonneoplastic
Apis mellifera = conditions: acute, mortality
Daphnia magna = conditions: chronic/long-term; duration: 21 days; reproduction
Zea sp. = conditions: not reported; seedling emergence
Aphidius rhopalosiphi = experiment: LR50; higher = less toxic; conditions: not reported; mortality
Typhlodromus pyri = experiment: LR50; higher = less toxic; conditions: not reported; mortality

`CC1=NNC(=O)N(/N=C/c2cccnc2)C1` [Pymetrozine] showed an NOEL (Colinus virginianus) of 21.8 mg/kg-day, an NOEC (Folsomia candida) of 1000 mg/kg and an LD50 (Rattus norvegicus; acute, mortality) of 3590 mg/kg-day. It also gave an NOAEL (Rattus norvegicus; reproduction developmental, reproduction) of no less than 110 mg/kg-day, an NOAEL (Rattus norvegicus; subchronic, duration: 90 days, oral, clinical chemistry) of 33 mg/kg-day and an LD50 (Anas platyrhynchos) of no less than 2000 mg/kg-day. The NOAEL (Canidae) was 0.57 mg/kg-day, the NOEC (Oncorhynchus mykiss) was 11.7 mg/L and the NOAEL (Oryctolagus sp.) was 10 mg/kg-day. It also gave an LD50 (Apis mellifera; dermal) greater than 100 µg/piece, an LD50 (Apis mellifera; oral, unspecified) greater than 62.7 µg/piece and an NOEC (Daphnia magna) of 0.025 mg/L. The LC50 (Tagia sp.; acute, duration: 14 days, mortality) was 1100 mg/kg, the NOEC (Tagia sp.; chronic/long-term, duration: 8 weeks) was 0.00139 g/ha and the NOEC (Zea sp.) was 150 g/ha. It also gave an LR50 (Aphidius rhopalosiphi) of 75 g/ha and an LR50 (Typhlodromus pyri) greater than 1200 g/ha.
